Experimental data reported in US20120077814A1, “SULFONAMIDE, SULFAMATE, AND SULFAMOTHIOATE DERIVATIVES” (priority 2010, published 2012).

Columns and labels:
[1] = test system: HCT-116 cell proliferation; experiment: Cell proliferation assay (HCT-116); assay type: cell-based; conditions: Homo sapiens; HCT-116 cells; read-out: Activity (range of inhibitory activity against HCT-116 cell proliferation, IC50)
Description: A panel of cancer cell lines is obtained from ATCC (Rockville, Md.). Cell cultures are maintained in Hyclone DMEM/F12 medium (Logan, Utah) supplemented with 10% fetal bovine serum and 15 mM HEPES buffer, final pH 7.2, at 37° C. with a 5% CO2 atmosphere. Cultures are maintained at sub-confluent densities.
For proliferation assays, cells are seeded into 96 well plates at 1,000-5,000 cells per well, depending on the cell line, and are incubated overnight. The following day, test compound, DMSO solution (negative control), or Actinomycin D (positive control) is added to the appropriate wells as 10× concentrated stocks prepared in phosphate buffered saline. The cell plates are then incubated for an additional 2-6 days, depending on the cell line, to allow proliferation to occur. To measure cell growth in adherent cultures, DNA amounts are measured in each well using the CyQuant DNA determination kit (Invitrogen, Carlsbad, Calif.) following the recommended protocol. Measurement of cell growth in suspension cultures is done by use of Celltiter Reagent (Promega, Madison, Wis.) at the end of treatment, following the recommended protocol. The percentage of cell growth is determined by comparing the cell growth in the presence of test compounds to the cells treated with DMSO vehicle (control, 100% growth) and cells treated with Actinomycin D ([…], 0% growth). […]

[2] = molecular target: T1, recombinant human NAE enzyme (NEDD8 Activating Enzyme) (Homo sapiens, UniProt Q8TBC4); experiment: E1-activating enzyme assay, time-resolved fluorescence energy transfer (NAE); assay type: biochemical; conditions: 0.5 nM recombinant human NAE, 100 μM ATP; read-out: Activity (range of inhibitory activity on NAE, IC50)
T1 sequence (Q8TBC4 1-463): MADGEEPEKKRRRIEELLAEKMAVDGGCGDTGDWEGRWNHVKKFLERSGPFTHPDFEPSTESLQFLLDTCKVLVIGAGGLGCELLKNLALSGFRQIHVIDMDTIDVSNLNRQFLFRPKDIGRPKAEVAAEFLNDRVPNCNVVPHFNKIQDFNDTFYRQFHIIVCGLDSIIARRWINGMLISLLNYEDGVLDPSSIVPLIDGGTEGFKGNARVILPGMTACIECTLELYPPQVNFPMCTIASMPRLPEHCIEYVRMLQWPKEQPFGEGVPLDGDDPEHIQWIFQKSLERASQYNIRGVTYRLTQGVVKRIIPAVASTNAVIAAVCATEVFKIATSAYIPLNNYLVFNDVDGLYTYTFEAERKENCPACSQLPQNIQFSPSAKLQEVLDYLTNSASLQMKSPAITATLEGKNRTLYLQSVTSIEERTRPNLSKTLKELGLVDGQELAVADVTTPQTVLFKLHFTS
T1 sequence (Q13564 1-534 partner): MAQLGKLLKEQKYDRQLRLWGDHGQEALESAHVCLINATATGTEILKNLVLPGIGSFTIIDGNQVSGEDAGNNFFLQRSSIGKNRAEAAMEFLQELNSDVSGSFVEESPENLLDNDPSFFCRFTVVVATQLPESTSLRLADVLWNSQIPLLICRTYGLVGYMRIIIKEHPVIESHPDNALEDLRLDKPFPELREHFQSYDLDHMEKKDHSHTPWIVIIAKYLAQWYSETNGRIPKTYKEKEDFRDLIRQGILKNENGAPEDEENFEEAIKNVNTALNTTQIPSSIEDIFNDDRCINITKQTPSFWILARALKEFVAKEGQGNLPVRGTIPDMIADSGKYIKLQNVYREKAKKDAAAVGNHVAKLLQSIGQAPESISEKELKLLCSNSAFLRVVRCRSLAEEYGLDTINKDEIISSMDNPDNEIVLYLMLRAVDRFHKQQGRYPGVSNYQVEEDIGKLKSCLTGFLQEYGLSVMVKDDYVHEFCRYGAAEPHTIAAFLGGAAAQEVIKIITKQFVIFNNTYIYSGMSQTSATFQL
Description: A time-resolved fluorescence energy transfer assay format is used to measure the in vitro activity of NEDD8 Activating Enzyme (NAE). The enzymatic reaction is performed in a total volume of 50 μL, containing 50 mM HEPES, pH 7.5, 0.05% BSA, 5 mM MgCl2, 100 μM ATP, 10 nM Ubc12-GST, 75 nM NEDD8-Flag and 0.5 nM recombinant human NAE enzyme. The reaction mixture is incubated with and without compound inhibitor at 24° C. for 30 min in a 96 half-well plate. The reaction is then terminated with 25 μL of stop/detection buffer (0.1 M HEPES, pH 7.5, 0.05% Tween20, 20 mM EDTA, 410 mM KF, 81.8 ng/mL Europium-Cryptate-labelled monoclonal Flag-M2-specific antibody (CisBio International) and 8.125 μg/mL PHYCOLINK allophycocyanin (XL-APC)-labelled GST-specific antibody (Prozyme)). After incubation for 2 hours at 24° C., the plate is read on a Tecan Infinite M1000 instrument using a time-resolved fluorescence method. A similar assay protocol is used to measure other E1 enzymes. For the Sumo Activating Enzyme (SAE) assay everything is conducted as described for NAE except that Ubc12-GST and NEDD8-Flag are replaced with 10 nM Ubc9-GST and 125 nM Sumo-Flag respectively, and recombinant human SAE (0.6 nM) replaced NAE. The Ubiquitin Activating Enzyme (UAE) assay is performed as described for NAE except Ubc12-GST, NEDD8-Flag, and NAE are replaced with 5 nM Ubc2-GST, 125 nM UBB-Flag, and 1.5 nM UAE respectively.
Compounds of the disclosure are inhibitors of NAE. Several exemplary compounds useful in the methods of the disclosure are listed below.

SMILES | IC50 [1] [µM] | IC50 [2] [µM]
NS(=O)(=O)OC[C@H]1O[C@@H](c2coc3c(NCc4ccc(Cl)c(C(F)(F)F)c4)ncnc23)[C@H](O)[C@@H]1O [Compound 35, (5-(4-(4-chloro-3-(trifluoromethyl)benzylamino)furo[3,2-d]pyrimidin-7-yl)-3,4-dihydroxytetrahydrofuran-2-yl)methyl sulfamate] | – | 0.5 to 5
NS(=O)(=O)OC[C@H]1O[C@@H](c2csc3c(NCc4cccc(Cl)c4)ncnc23)[C@H](O)[C@@H]1O [Compound 37, (5-(4-(3-chlorobenzylamino)thieno[3,2-d]pyrimidin-7-yl)-3,4-dihydroxytetrahydrofuran-2-yl)methyl sulfamate] | – | 0.5 to 5
NS(=O)(=O)OC[C@H]1O[C@@H](c2ccc3c(N[C@H]4CCc5ccccc54)ncnn23)CC1=O [Compound 1, [(2R,5R)-5-[4-[[(1S)-indan-1-yl]amino]pyrrolo[2,1-f][1,2,4]triazin-7-yl]-3-oxo-tetrahydrofuran-2-yl]methyl sulfamate] | 5 to 50 | 5 to 50
NS(=O)(=O)OC[C@H]1O[C@@H](c2csc3c(NCc4ccccc4Cl)ncnc23)[C@H](O)[C@@H]1O [Compound 30, (5-(4-(2-chlorobenzylamino)thieno[3,2-d]pyrimidin-7-yl)-3,4-dihydroxytetrahydrofuran-2-yl)methyl sulfamate] | – | 0.5 to 5
COCCNc1ncnc2c([C@@H]3O[C@H](COS(N)(=O)=O)[C@@H](O)[C@H]3O)csc12 [Compound 28, (3,4-dihydroxy-5-(4-(2-methoxyethylamino)thieno[3,2-d]pyrimidin-7-yl)tetrahydrofuran-2-yl)methyl sulfamate] | 5 to 50 | –
NS(=O)(=O)OC[C@H]1O[C@@H](c2coc3c(NCc4ccc(Cl)cc4Cl)ncnc23)[C@H](O)[C@@H]1O [Compound 34, (5-(4-(2,4-dichlorobenzylamino)furo[3,2-d]pyrimidin-7-yl)-3,4-dihydroxytetrahydrofuran-2-yl)methyl sulfamate] | 5 to 50 | –
NS(=O)(=O)OC[C@H]1C[C@H](c2ccc3c(N[C@H]4CCc5ccccc54)ncnn23)C[C@@H]1OS(N)(=O)=O [Compound 19, [2-[(aminosulfonyl)oxy]-4-{4-[2,3-dihydro-1H-inden-1-ylamino]pyrrolo[2,1-f][1,2,4]triazin-7-yl}cyclopentyl]methyl sulfamate] | 5 to 50 | 5 to 50

Continued, values first:

IC50 [1] [µM] | IC50 [2] [µM] | SMILES
< 0.5 | 0.5 to 5 | Nc1ncnc2c([C@@H]3O[C@H](COS(N)(=O)=O)[C@@H](O)[C@H]3O)coc12 [Compound 11, ((2R,3S,4R,5S)-5-(4-aminofuro[3,2-d]pyrimidin-7-yl)-3,4-dihydroxytetrahydrofuran-2-yl)methyl sulfamate]
5 to 50 | – | NS(=O)(=O)OC[C@H]1O[C@@H](c2csc3c(NCC4CC4)ncnc23)[C@H](O)[C@@H]1O [Compound 26, (5-(4-(cyclopropylmethylamino)thieno[3,2-d]pyrimidin-7-yl)-3,4-dihydroxytetrahydrofuran-2-yl)methyl sulfamate]
0.5 to 5 | – | NS(=O)(=O)OC[C@H]1O[C@@H](c2csc3c(NCc4ccccc4)ncnc23)[C@H](O)[C@@H]1O [Compound 25, (5-(4-(benzylamino)thieno[3,2-d]pyrimidin-7-yl)-3,4-dihydroxytetrahydrofuran-2-yl)methyl sulfamate]
0.5 to 5 | 0.5 to 5 | Nc1ncnc2c([C@@H]3O[C@H](COS(N)(=O)=O)[C@@H](O)[C@H]3O)[nH]nc12 [Compound 3, [(2R,3S,4R,5S)-5-(7-amino-1H-pyrazolo[4,3-d]pyrimidin-3-yl)-3,4-dihydroxy-tetrahydrofuran-2-yl]methyl sulfamate]
5 to 50 | – | Nc1ncnc2c([C@@H]3O[C@H](COS(N)(=O)=O)[C@@H](O)[C@H]3O)cnn12 [Compound 13, ((2R,3S,4R,5S)-5-(4-aminopyrazolo[1,5-a][1,3,5]triazin-8-yl)-3,4-dihydroxytetrahydrofuran-2-yl)methyl sulfamate]
0.5 to 5 | < 0.5 | NS(=O)(=O)OC[C@H]1O[C@@H](c2csc3c(NCc4ccc(Cl)cc4)ncnc23)[C@H](O)[C@@H]1O [Compound 6, ((2R,3S,4R,5S)-5-(4-(4-chlorobenzylamino)thieno[3,2-d]pyrimidin-7-yl)-3,4-dihydroxytetrahydrofuran-2-yl)methyl sulfamate]
< 0.5 | < 0.5 | Nc1ncnc2c([C@@H]3O[C@H](COS(N)(=O)=O)[C@@H](O)[C@H]3O)csc12 [Compound 4, [(2R,3S,4R,5S)-5-(4-aminothieno[3,2-d]pyrimidin-7-yl)-3,4-dihydroxy-tetrahydrofuran-2-yl]methyl sulfamate]
0.5 to 5 | 0.5 to 5 | NS(=O)(=O)OC[C@H]1O[C@@H](c2csc3c(N[C@H]4CCc5ccccc54)ncnc23)C[C@@H]1O [Compound 10, ((2R,3S,5R)-5-(4-((S)-2,3-dihydro-1H-inden-1-ylamino)thieno[3,2-d]pyrimidin-7-yl)-3-hydroxytetrahydrofuran-2-yl)methyl sulfamate]
